Among the data in PubChem BioAssay AID1259407 (Chemical Carcinogenesis Research Information System (CCRIS), 2018) are mutagenic call values, retold here.

Molecules are shown by their SMILES. Calls of active or inactive are those of the source. The rule behind the calls is not given here.

The data set relates to CCRIS mutagenicity, Ames/micronucleus/aberration tests. The data set can be described thus: CCRIS mutagenicity studies.
The mark [1] stands for this setting: Test System: AMES SALMONELLA TYPHIMURIUM, Strain/Indicator: TA98, Metabolic Activation: NONE, Method: PREINCUBATION
The mark [2] stands for this setting: Test System: AMES SALMONELLA TYPHIMURIUM, Strain/Indicator: TA100, Metabolic Activation: NONE, Method: PREINCUBATION
The mark [3] stands for this setting: Test System: AMES SALMONELLA TYPHIMURIUM, Strain/Indicator: TA98, Metabolic Activation: NONE, Method: STANDARD PLATE.
Setting [4] is: Test System: AMES SALMONELLA TYPHIMURIUM, Strain/Indicator: TA98, Metabolic Activation: RAT, LIVER, S-9, AROCLOR 1254, Method: STANDARD PLATE.
[5] abbreviates: Test System: AMES SALMONELLA TYPHIMURIUM, Strain/Indicator: TA100, Metabolic Activation: NONE, Method: STANDARD PLATE.
[6] abbreviates: Test System: AMES SALMONELLA TYPHIMURIUM, Strain/Indicator: TA100, Metabolic Activation: RAT, LIVER, S-9, AROCLOR 1254, Method: STANDARD PLATE.
[7] abbreviates: Test System: AMES SALMONELLA TYPHIMURIUM, Strain/Indicator: TA1535, Metabolic Activation: NONE, Method: STANDARD PLATE.
The mark [8] stands for this setting: Test System: AMES SALMONELLA TYPHIMURIUM, Strain/Indicator: TA1535, Metabolic Activation: RAT, LIVER, S-9, AROCLOR 1254, Method: STANDARD PLATE.
Where [9] appears, read: Test System: AMES SALMONELLA TYPHIMURIUM, Strain/Indicator: TA1537, Metabolic Activation: NONE, Method: STANDARD PLATE.
The mark [10] stands for this setting: Test System: AMES SALMONELLA TYPHIMURIUM, Strain/Indicator: TA1537, Metabolic Activation: RAT, LIVER, S-9, AROCLOR 1254, Method: STANDARD PLATE.
The mark [11] stands for this setting: Test System: AMES SALMONELLA TYPHIMURIUM, Strain/Indicator: TA1538, Metabolic Activation: NONE, Method: STANDARD PLATE.
Setting [12] is: Test System: AMES SALMONELLA TYPHIMURIUM, Strain/Indicator: TA1538, Metabolic Activation: RAT, LIVER, S-9, AROCLOR 1254, Method: STANDARD PLATE.

`OCC(CO)NC1CC(O)(CO)C(O)C(O)C1O` (stereo not given): the mutagenic call is, setting by setting: (Test System: AMES SALMONELLA TYPHIMURIUM, Strain/Indicator: TA98, Metabolic Activation: NONE) “inactive; negative”; (Test System: AMES SALMONELLA TYPHIMURIUM, Strain/Indicator: TA98, Metabolic Activation: RAT, LIVER, S-9, SODIUM PHENOBARBITAL AND 5,6-BENZOFLAVONE) “inactive; negative”; (Test System: AMES SALMONELLA TYPHIMURIUM, Strain/Indicator: TA100, Metabolic Activation: NONE) “inactive; negative”; (Test System: AMES SALMONELLA TYPHIMURIUM, Strain/Indicator: TA100, Metabolic Activation: RAT, LIVER, S-9, SODIUM PHENOBARBITAL AND 5,6-BENZOFLAVONE) “inactive; negative”; (Test System: AMES SALMONELLA TYPHIMURIUM, Strain/Indicator: TA1535, Metabolic Activation: NONE) “inactive; negative”; (Test System: AMES SALMONELLA TYPHIMURIUM, Strain/Indicator: TA1535, Metabolic Activation: RAT, LIVER, S-9, SODIUM PHENOBARBITAL AND 5,6-BENZOFLAVONE) “inactive; negative”. Further, the mutagenic call reads like this: (Test System: AMES SALMONELLA TYPHIMURIUM, Strain/Indicator: TA1537, Metabolic Activation: NONE) “inactive; negative”; (Test System: AMES SALMONELLA TYPHIMURIUM, Strain/Indicator: TA1537, Metabolic Activation: RAT, LIVER, S-9, SODIUM PHENOBARBITAL AND 5,6-BENZOFLAVONE) “inactive; negative”; (Test System: E. COLI, Strain/Indicator: WP2 UVRA, Metabolic Activation: NONE) “inactive; negative”; (Test System: E. COLI, Strain/Indicator: WP2 UVRA, Metabolic Activation: RAT, LIVER, S-9, SODIUM PHENOBARBITAL AND 5,6-BENZOFLAVONE) “inactive; negative”.

`CCc1cccc(CC)c1NC(=O)CCl`: the mutagenic call is “inactive; negative” under setting [1]; “inactive; negative” (Test System: AMES SALMONELLA TYPHIMURIUM, Strain/Indicator: TA98, Metabolic Activation: RAT, LIVER, MICROSOMES, PHENOBARBITAL, Method: PREINCUBATION); “active; positive” under setting [2]; “active; positive” (Test System: AMES SALMONELLA TYPHIMURIUM, Strain/Indicator: TA100, Metabolic Activation: RAT, LIVER, MICROSOMES, PHENOBARBITAL, Method: PREINCUBATION).

Turning to `CCc1ccnc2ccccc12`, under “Test System: AMES SALMONELLA TYPHIMURIUM, Strain/Indicator: TA100, Metabolic Activation: RAT, LIVER, S-9, Method: PREINCUBATION”, the mutagenic call was “inactive; negative”.

Take `O=C(O)c1nn(Cc2ccc(Cl)cc2Cl)c2ccccc12`: the mutagenic call runs as follows: under setting [3], “inactive; negative”; under setting [4], “inactive; negative”; under setting [5], “inactive; negative”; under setting [6], “inactive; negative”; under setting [7], “inactive; negative”; under setting [8], “inactive; negative”. Also, the mutagenic call under setting [9] is “inactive; negative”; the mutagenic call under setting [10] is “inactive; negative”; the mutagenic call under setting [11] is “inactive; negative”; the mutagenic call under setting [12] is “inactive; negative”; the mutagenic call (Test System: CHINESE HAMSTER OVARY, Strain/Indicator: CHO-K1-BH4 (HPRT), Metabolic Activation: NONE) was “inactive; negative”; the mutagenic call (Test System: CHINESE HAMSTER OVARY, Strain/Indicator: CHO-K1-BH4 (HPRT), Metabolic Activation: RAT, LIVER, S-9, AROCLOR 1254) was “inactive; negative”.

Consider `ONc1ccccc1`, for which the mutagenic call (Test System: AMES SALMONELLA TYPHIMURIUM, Strain/Indicator: TA100, Metabolic Activation: RAT, LIVER, S-9, PCB, Method: PREINCUBATION) is “active; positive” and the mutagenic call (Test System: E. COLI, Strain/Indicator: WP2 UVRA, Metabolic Activation: NONE, Method: FLUCTUATION TEST) was “inactive; negative”.

For the compound `COC/C(=C/c1ccccc1)OC`, the mutagenic call is “inactive; negative” (Test System: AMES SALMONELLA TYPHIMURIUM, Strain/Indicator: TA97, Metabolic Activation: NONE, Method: STANDARD PLATE); “inactive; negative” (Test System: AMES SALMONELLA TYPHIMURIUM, Strain/Indicator: TA97, Metabolic Activation: RAT, LIVER, S-9, AROCLOR 1254, Method: STANDARD PLATE); “inactive; negative” under setting [3]; “inactive; negative” under setting [4]; “inactive; negative” under setting [5]; “inactive; negative” under setting [6]. The mutagenic call reads like this: under setting [7], “inactive; negative”; under setting [8], “inactive; negative”; under setting [9], “active; positive”; under setting [10], “inactive; negative”; under setting [11], “inactive; negative”; under setting [12], “inactive; negative”.

On to `CC(=O)Nc1ccc(Cc2ccc(NC(C)=O)cc2)cc1`, for which the mutagenic call reads like this: under setting [3], “inactive; negative”; (Test System: AMES SALMONELLA TYPHIMURIUM, Strain/Indicator: TA98, Metabolic Activation: RAT, LIVER, S-9, PCB, Method: STANDARD PLATE) “inactive; negative”; under setting [5], “inactive; negative”; (Test System: AMES SALMONELLA TYPHIMURIUM, Strain/Indicator: TA100, Metabolic Activation: RAT, LIVER, S-9, PCB, Method: STANDARD PLATE) “inactive; negative”.

Take `CC(=O)Nc1cccc(N)c1`: the mutagenic call (Test System: AMES SALMONELLA TYPHIMURIUM, Strain/Indicator: TA97, Metabolic Activation: HAMSTER, LIVER, S-9, AROCLOR 1254 (10%), Method: PREINCUBATION) is “active; positive”; the mutagenic call (Test System: AMES SALMONELLA TYPHIMURIUM, Strain/Indicator: TA97, Metabolic Activation: NONE, Method: PREINCUBATION) was “inactive; negative”; the mutagenic call (Test System: AMES SALMONELLA TYPHIMURIUM, Strain/Indicator: TA97, Metabolic Activation: RAT, LIVER, S-9, AROCLOR 1254 (10%), Method: PREINCUBATION) was “active; positive”; the mutagenic call (Test System: AMES SALMONELLA TYPHIMURIUM, Strain/Indicator: TA98, Metabolic Activation: HAMSTER, LIVER, S-9, AROCLOR 1254 (10%), Method: PREINCUBATION) is “active; positive”; the mutagenic call under setting [1] is “inactive; negative”; the mutagenic call (Test System: AMES SALMONELLA TYPHIMURIUM, Strain/Indicator: TA98, Metabolic Activation: RAT, LIVER, S-9, AROCLOR 1254 (10%), Method: PREINCUBATION) is “active; positive”. For the same compound, the mutagenic call is “active; positive” (Test System: AMES SALMONELLA TYPHIMURIUM, Strain/Indicator: TA100, Metabolic Activation: HAMSTER, LIVER, S-9, AROCLOR 1254 (10%), Method: PREINCUBATION); “inactive; negative” under setting [2]; “inactive; negative” (Test System: AMES SALMONELLA TYPHIMURIUM, Strain/Indicator: TA100, Metabolic Activation: RAT, LIVER, S-9, AROCLOR 1254 (10%), Method: PREINCUBATION); “inactive; negative” (Test System: AMES SALMONELLA TYPHIMURIUM, Strain/Indicator: TA1535, Metabolic Activation: HAMSTER, LIVER, S-9, AROCLOR 1254 (10%), Method: PREINCUBATION); “inactive; negative” (Test System: AMES SALMONELLA TYPHIMURIUM, Strain/Indicator: TA1535, Metabolic Activation: NONE, Method: PREINCUBATION); “inactive; negative” (Test System: AMES SALMONELLA TYPHIMURIUM, Strain/Indicator: TA1535, Metabolic Activation: RAT, LIVER, S-9, AROCLOR 1254 (10%), Method: PREINCUBATION).

As for `OCc1cc2ccc3cccnc3c2[nH]1`, the mutagenic call was “inactive; negative” under setting [3] and “inactive; negative” (Test System: E. COLI, Strain/Indicator: WP2 TM9, Metabolic Activation: NONE, Method: STANDARD PLATE).

As for `C=CCc1cc(OC)c2c(c1)OCO2`, the mutagenic call (Test System: UDS RAT HEPATOCYTES, Strain/Indicator: THY INCORP, Metabolic Activation: NONE, Method: LIQUID SCINTILLATION COUNTING) is “inactive; negative”.
